Source: PMC5995839, “Exploring the role of unnatural amino acids in antimicrobial peptides” (Scientific Reports, 2018)
Values after ≈ are worked out from the molar mass of the structure shown. Square brackets hold non-standard residues; d marks the D form. Peptide text beside a SMILES is read from it. * marks the point of attachment. 2Nal = N[C@@H](Cc1ccc2ccccc2c1)C(=O)O; Ahx = NCCCCCC(=O)O; StBu = CC(C)(C)S*; tBu = CC(C)(C)*

Assays:
[1] = test system: Escherichia coli ATCC 25922; format: cell-based
Protocol: The antimicrobial activity of the three designed peptides was tested against Escherichia coli (ATCC® 25922™), Pseudomonas aeruginosa (ATCC® 27853™), Pseudomonas aeruginosa PAO1 wild type strain, Bacillus subtilis subsp. spizizenii (ATCC® 6633™), Staphylococcus aureus (ATCC® 6538 P™) and Staphylococcus aureus MRSA WKZ-2 (kindly provided by collection of Prof. Edwin Veldhuizen, University of Utrecht, Holland). MIC assays were performed by broth microdilution method as described elsewhere[34] using Nutrient Broth (Becton Dickinson Difco, Franklin Lakes, NJ) as bacterial growth medium. […] Experiments were performed three times for each peptide.
Following the incubation time, MIC assays were carried out as previously described. […] Experiments were performed five times for each peptide.

[2] = test system: Staphylococcus aureus (ATCC 6538P); format: cell-based
[3] = test system: Staphylococcus aureus MRSA WKZ-2; format: cell-based
Protocol: (§2) MIC assays were performed by broth microdilution method as described elsewhere[34] using Nutrient Broth (Becton Dickinson Difco, Franklin Lakes, NJ) as bacterial growth medium. […] Experiments were performed three times for each peptide.

[4] = test system: human keratinocytes cells HaCaT; format: cell-based
Protocol: (§1) Cytotoxic effects of the three peptides on human epithelial colorectal adenocarcinoma cells (CaCo-2) and on aneuploid immortal keratinocyte cells line from adult human skin (HaCaT) were assessed by performing the (3-(4,5-dimethylthiazol-2-yl)−2,5 diphenyltetrazolium bromide (MTT) reduction inhibition assay. Both human cell lines were obtained from the American Type Culture Collection (ATCC, Manassas, VA, USA) and grown at 37 °C in a humidified incubator containing 5% CO2 in Dulbecco’s modified Eagle’s medium (DMEM) supplemented with 10% fetal bovine serum, 4 mM glutamine, 400 units/mL penicillin, and 0.1 mg mL^−1 streptomycin. Cells were plated on 96-well plates at a density of 5 × 10^3 per well in 100 μL of medium and incubated at 37 °C with 5% CO2. Medium was then replaced with 100 μl of fresh media containing peptide solution to a final concentration ranging from 0.1–10 μM/well. After a time of incubation ranging from 18 to 48 hours at 37 °C, the peptide-containing medium was removed, and 10 μL of a 5 mg mL^−1 MTT stock solution in DMEM without red phenol, corresponding to a final concentration of […] in DMEM (final volume of 100 μL), was added to the cells. […] Cell survival was reported as the relative absorbance, with respect to control, of blue formazan measured at 570 nm with a Synergy Multi Plate Reader. […]

[5] = test system: human intestinal CaCo-2 cells; format: cell-based
Protocol: as §1

[6] = test system: Bacillus subtilis subsp. spizizenii (ATCC 6633); format: cell-based
Protocol: as §2

[7] = test system: Pseudomonas aeruginosa PAO1 wild type strain; format: cell-based
Protocol: as §2

[8] = test system: Pseudomonas aeruginosa (ATCC 27853); format: cell-based
Protocol: as §2

[9] = test system: Escherichia coli (ATCC 25922); format: cell-based
Protocol: as §2

[10] = Relative hydrophobicity by retention in reverse phase HPLC; format: physicochemical; conditions: chromatographic, Fig. S4 and Table S1 (numbers not available here)
Protocol: Crude peptides were purified by preparative HPLC on a Shimadzu LC-8A system. A Vydac C18 column (22 mm × 250 mm; 10 μm) was used, eluted with a H2O 0.1% TFA, (eluent A) and CH3CN 0.1% TFA (eluent B) linear gradient at 22 mL min^−1 flow rate. Fractions were separated according to their absorbance at 210 nm by an online UV detector (Shimadzu). Peptide fractions were then checked for their purity by analytical LCMS. Peptide identities were confirmed by LCMS analysis on a Shimadzu 20ADxr coupled with a Shimadzu ESI-IT-TOF mass detector (probe voltage 4.5 kV; probe temperature 25 °C; desolvation temperature 250 °C; detector voltage 1.5 kV). All analyses were performed with a Vydac C18 column (2.1 mm × 100 mm; 5 μm), eluted with a H2O 0.05% TFA, (eluent A) and CH3CN 0.05% TFA (eluent B) linear gradient, from 5% to 95% (solvent B), over 30 minutes, at 0.2 ml min^−1 flow rate. Pure fractions were pooled and lyophilized as TFA salts (purity >95%). Peptide samples for biological assays were further subjected to counter ion exchange on a DEAE-Sephadex weak […] resin. Briefly, peptide solutions in water were loaded on a 0.5 mL syringe column, and then eluted by decreasing the pH with an acetate buffer at pH 4.3 to obtain the desired peptide acetate salt. Further, the relative hydrophobicities of P9 peptides were evaluated through their retention in reverse phase HPLC.

SMILES	Fold change (16 h) [1]	Fold change (1 h) [1]	MIC, Preincubation for 1 h in 10% serum ([1]; E. coli ATCC 25922, peptide incubated 1 h in 10% fetal bovine serum at 37 °C before MIC assay, five replicates)	MIC, S. aureus ATCC6538P [2]	MIC, S. aureus MRSA [3]	toxic effects on HaCaT cells at low doses [4]	toxic effect on CaCo2 cells at low doses, compared with HaCaT [5]	MIC, B. spizizenii ATCC6633 [6]	MIC, PAO1 Wt [7]	MIC, P. aeruginosa ATCC27853 [8]	MIC, E. coli ATCC25922 [9]	relative hydrophobicity (retention in reverse phase HPLC) [10]
CC(=O)N[C@@H](CC(C)C)C(=O)N[C@@H](CCCNC(=N)N)C(=O)N[C@H](C(=O)N[C@@H](CCCNC(=N)N)C(=O)N[C@@H](CC(C)C)C(=O)N[C@@H](C)C(=O)N[C@@H](CO)C(=O)N[C@@H](Cc1c[nH]cn1)C(=O)N[C@@H](CC(C)C)C(=O)N[C@@H](CCCNC(=N)N)C(=O)N[C@@H](CCCCN)C(=O)N[C@@H](CC(C)C)C(=O)N[C@@H](CCCNC(=N)N)C(=O)N[C@@H](CCCCN)C(=O)N[C@@H](CCCNC(=N)N)C(=O)N[C@@H](CC(C)C)C(=O)N[C@@H](CC(C)C)C(=O)N[C@@H](CCCNC(=N)N)C(N)=O)C(C)C [Ac-ApoE(133–150)-NH2, reference compound]	>16											
CC(C)C[C@H](NC(=O)[C@H](CCCNC(=N)N)NC(=O)[C@@H](NC(=O)[C@H](CCCNC(=N)N)NC(=O)[C@@H](N)CC(C)C)C(C)C)C(=O)N[C@@H](C)C(=O)N[C@@H](CO)C(=O)N[C@@H](Cc1c[nH]cn1)C(=O)N[C@@H](CC(C)C)C(=O)N[C@@H](CCCNC(=N)N)C(=O)N[C@@H](CCCCN)C(=O)N[C@@H](CC(C)C)C(=O)N[C@@H](CCCNC(=N)N)C(=O)N[C@@H](CCCCN)C(=O)N[C@@H](CCCNC(=N)N)C(=O)N[C@@H](CC(C)C)C(=O)N[C@@H](CC(C)C)C(=O)N[C@@H](CCCNC(=N)N)C(=O)O [ApoE(133–150), reference compound]	>16	>16	completely lost antimicrobial activity									
CC(C)(C)SC[C@H](NC(=O)CCCCCN)C(=O)N[C@@H](CCCCN)C(=O)N[C@@H](Cc1ccc2ccccc2c1)C(=O)N[C@@H](Cc1ccc2ccccc2c1)C(=O)N[C@@H](CCCCN)C(=O)N[C@@H](CCCCN)C(=O)N[C@@H](CSC(C)(C)C)C(=O)NCCCCCC(N)=O [P9Nal(SR)] (H-[Ahx]C(tBu)K[2Nal][2Nal]KKC(tBu)[Ahx]-NH2)	>8	1		40 µM (≈ 53.6 µg/mL)	40 µM (≈ 53.6 µg/mL)	no evident toxic effects	slightly higher	40 µM (≈ 53.6 µg/mL)	10 µM (≈ 13.4 µg/mL)	1.25 µM (≈ 1.68 µg/mL)	10 µM (≈ 13.4 µg/mL)	
CC(C)(C)SSC[C@H](NC(=O)CCCCCN)C(=O)N[C@@H](CCCCN)C(=O)N[C@@H](Cc1ccc2ccccc2c1)C(=O)N[C@@H](Cc1ccc2ccccc2c1)C(=O)N[C@@H](CCCCN)C(=O)N[C@@H](CCCCN)C(=O)N[C@@H](CSSC(C)(C)C)C(=O)NCCCCCC(N)=O [P9Nal(SS)] (H-[Ahx]C(StBu)K[2Nal][2Nal]KKC(StBu)[Ahx]-NH2)		1		10 µM (≈ 14 µg/mL)	20 µM (≈ 28.1 µg/mL)			10 µM (≈ 14 µg/mL)	10 µM (≈ 14 µg/mL)	2.5 µM (≈ 3.51 µg/mL)	10 µM (≈ 14 µg/mL)	most hydrophobic
CC(C)(C)SSC[C@H](NC(=O)CCCCCN)C(=O)N[C@@H](CCCCN)C(=O)N[C@@H](Cc1c[nH]c2ccccc12)C(=O)N[C@@H](Cc1c[nH]c2ccccc12)C(=O)N[C@@H](CCCCN)C(=O)N[C@@H](CCCCN)C(=O)N[C@@H](CSSC(C)(C)C)C(=O)NCCCCCC(N)=O [P9Trp(SS)] (H-[Ahx]C(StBu)KWWKKC(StBu)[Ahx]-NH2)		1		20 µM (≈ 27.7 µg/mL)	40 µM (≈ 55.3 µg/mL)			40 µM (≈ 55.3 µg/mL)	10 µM (≈ 13.8 µg/mL)	2.5 µM (≈ 3.46 µg/mL)	10 µM (≈ 13.8 µg/mL)	
